[invAb] = inverted abasic unit; d = 2'-deoxy (DNA); m = 2'-O-methyl; r = 2'-OH (RNA); f = 2'-fluoro

Data set [1] deals with Bach1 mRNA. The data set is described as follows: Initial screen: Bach1 mRNA knock-down in human A549 cells (96-well transfection, quantitative RT-PCR). The class given is cell-based. The conditions noted are these: Bach1 mRNA, 10 nM siNA, human A549 cells, n = 2, mean ± S.D., normalized to GAPDH and non-targeting control, 24 hrs post-transfection. The protocol:
(§1) All cells were obtained from ATCC (Manassas, Va.) unless otherwise indicated. Cells were grown and transfected under standard conditions, which are detailed below for each cell line.
(§2) Cells were plated in all wells of a tissue-culture treated, 96-well plate at a final count of 5000 cells/well in 100 μL of the appropriate culture media. The cells were cultured for 24 hours after plating at 37° C. in the presence of 5% CO2.
(§3) After 24 hours, complexes containing siNA and RNAiMax were created as follows: A solution of RNAiMax diluted 33-fold in OPTI-MEM was prepared. […] After incubation of RNAiMax/OPTI-MEM solution at room temperature for 5 min, an equal volume of the siNA solution and the RNAiMax solution were added together for each of the siNAs.
(§4) This solution was incubated at room temperature for 20 minutes. After incubation, 20 uL of the solution was added to each of the relevant wells. The final concentration of siNA in each well was 10 nM and the final volume of RNAiMax in each well was 0.3 ul. […]
(§5) Briefly, a 60 uL (1 plate) or 110 uL (2 plates) of the Lysis Solution with DNase I was dispensed into each well of the Lysis Buffer Plate (twin.tec full skirt plate). The lysis buffer and stop plates were stored at 4° C. until the cells were washed.
(§6) The plate was spun at 1100 rpm for 5 minutes. The culture medium was aspirated and discarded from the wells of the culture plate. The lysis was performed automatically using a BioMek FX instrument and method. After the Biomek method was completed, the lysis plate was incubated for 2 min at room temperature. The lysis plate can be stored for 2 hours at 4° C., or at −20° C. or −80° C. for two months.
(§7) Each well of the reverse transcription plate required 10 uL of 2× reverse transcriptase Buffer, 1 uL of 20× reverse transcription enzyme and 2 uL of nuclease-free water. The reverse transcription master mix was prepared by mixing 2× reverse transcription buffer, 20× reverse transcription enzyme mix, and nuclease-free water. 13 uL of the reverse transcription master mix was dispensed into each well of the reverse transcription plate (semi-skirted). A separate reverse transcription plate was prepared for each cell plate. The plate was loaded onto a Biomek NX or Biomek FX Dual −96 and the Biomek method was run. The program is programmed to automatically added 7 uL of lysate from the cell lysis procedure described above into each well of the reverse transcription plate. The plate is sealed and spun on a centrifuge (1000 rpm for 30 seconds) to settle the contents to the bottom of the reverse transcription plate. The plate is placed in a thermocycler at 37° C. for 60 min, 95° C. for 5 min, and 4° C. until the plate is removed from the thermocycler. Upon removal, if not used immediately, the plate was frozen at −20° C.
(§8) A series of probes and primers were used to detect the various mRNA transcripts of the genes of Bach1, HMOX-1, and GAPDH in mouse and human cell lines. The assays were performed on an ABI 7900 instrument, according to the manufacturer's instructions. […] The PCR reactions were carried out at 50° C. for 2 min, 95° C. for 20 min followed by 40 cycles at 95° C. for 15 secs and 60° C. for 1 min
(§9) Within each experiment, the […] was set in the exponential phase of the amplification curve, and based on the intersection point of the baselines with the amplification curve, a Ct value was assigned by the instrument.
(§10) The expression level of the gene of interest and % knock-down was calculated using Comparative Ct method:
(§11) ΔCt=ΔCt(Target siRNA)−ΔCt(NTC)
(§12) Relative expression level=2^−ΔΔCt
(§13) The non-targeting control siNA was, unless otherwise indicated, chosen as the value against which to calculate the % knock-down, because it is the most relevant control.

In data set [2] the test system is Bach1 mRNA. Nature of the data set: Initial screen: Bach1 mRNA knock-down in mouse NIH 3T3 cells (96-well transfection, quantitative RT-PCR). The class given is cell-based. The following applies: mouse NIH3T3 cells, n = 2, 24 hrs post-transfection, protocol 10 nM siNA. The protocol: as §1, §2, §3, §4, §5, §6, §7, §8, §9, §10, §11, §12, §13

As to “29965-DC: Bach1 siNA duplex, target site 596; sense B GAccAGAGGGAucuAGAAA TTB (SEQ 79); antisense UUUcuAGAucccucuGGucUU (SEQ 80) (sense GACCAGAGGGAUCUAGAAATT; antisense UUUCUAGAUCCCUCUGGUCUU; sense: sugars from the 5' end d2 f2 d7 f3 d7, [invAb] at 5' end, 3' end, backbone not given here; antisense: sugars from the 5' end rrrffmmmfffffffmmffmm, backbone not given here)”, the results for the “% KD” value in data set [1] and in data set [2] were 34.4 ± 3.6% and 4.8 ± 6.3%, respectively.

Turning to “29981-DC: Bach1 siNA duplex, target site 331 (mouse); sense B cAGcuAcuuccAcucGAGA TTB (SEQ 111); antisense UCUcGAGuGGAAGuAGcuGUU (SEQ 112) (sense CAGCUACUUCCACUCGAGATT; antisense UCUCGAGUGGAAGUAGCUGUU; sense: DNA at AGT, 2'-fluoro at CU, [invAb] at 5' end, 3' end, backbone not given here; antisense: sugars from the 5' end rrrfmmmfmmmmmfmmffmmm, backbone not given here)”, the “% KD” value in data set [1] is reported as 1 ± 0.9%; in data set [2], 3.5 ± 5%.

“29978-DC: Bach1 siNA duplex, target site 403 (mouse); sense B GGuuAAAGGAuuuGAAccu TTB (SEQ 105); antisense AGGuucAAAuccuuuAAccUU (SEQ 106) (sense GGUUAAAGGAUUUGAACCUTT; antisense AGGUUCAAAUCCUUUAACCUU; sense: DNA at AGT, 2'-fluoro at CU, [invAb] at 5' end, 3' end, backbone not given here; antisense: sugars from the 5' end rrrfffmmmffffffmmffmm, backbone not given here)”: the figures for the “% KD” value in data set [1] and in data set [2] were 14.4 ± 0^ % and 3.3 ± 3.8%, respectively.

Regarding “29951-DC: Bach1 siNA duplex, target site 1162; sense B GccuuuGucAGGuAcAGAc TTB (SEQ 51); antisense GUCuGuAccuGAcAAAGGcUU (SEQ 52) (sense GCCUUUGUCAGGUACAGACTT; antisense GUCUGUACCUGACAAAGGCUU; sense: DNA at AGT, 2'-fluoro at CU, [invAb] at 5' end, 3' end, backbone not given here; antisense: sugars from the 5' end rrrfmfmfffmmfmmmmmfmm, backbone not given here)”, the “% KD” value is recorded as 39 ± 11.2% in data set [1] and −22 ± 13.2% in data set [2].

For the substance “29971-DC: Bach1 siNA duplex, target site 2488 (mouse); sense B GuAGcuuucuGuuGAGGGA TTB (SEQ 91); antisense UCCcucAAcAGAAAGcuAcUU (SEQ 92) (sense GUAGCUUUCUGUUGAGGGATT; antisense UCCCUCAACAGAAAGCUACUU; sense: sugars from the 5' end rfddffffffdffdddddddd, [invAb] at 5' end, 3' end, backbone not given here; antisense: sugars from the 5' end rrrfffmmfmmmmmmffmfmm, backbone not given here)”, the “% KD” value is 23.9 ± 3.8% in data set [1] and 75 ± 4.7% in data set [2].

“29967-DC: Bach1 siNA duplex, target site 494 (mouse); sense B GAGuuucuAAGcGuAcAcA TTB (SEQ 83); antisense UGUGuAcGcuuAGAAAcucUU (SEQ 84) (sense GAGUUUCUAAGCGUACACATT; antisense UGUGUACGCUUAGAAACUCUU; sense: DNA at AGT, 2'-fluoro at CU, [invAb] at 5' end, 3' end, backbone not given here; antisense: sugars from the 5' end rrrmfmfmfffmmmmmfffmm, backbone not given here)”: the entries for the “% KD” value in data set [1] and in data set [2] were 34.6 ± 6.7% and 34.7 ± 8.4%, respectively.

(Values after patent US20120016010A1, “RNA Interference Mediated Inhibition of BTB and CNC Homology 1, Basic Leucine Zipper Transcription Factor 1 (BACH1) Gene Expression Using Short Interfering Nucleic Acid (siNA)” (Merck Sharp & Dohme Corp, priority 2009, published 2012).)
